Measurements from paper PMC4786259 (PLoS ONE, 2016).

Test system: WT and dopamine transporter knockout (DAT-KO) mice
Experiment: Prepulse inhibition in WT and DAT-KO mice
Conditions: 2 mg/kg clozapine i.p.

CN1CCN(C2=Nc3cc(Cl)ccc3Nc3ccccc32)CC1 [clozapine]
PPI in DAT-KO mice: restored
PPI in WT mice: not affected
